Test results from ChEMBL document CHEMBL1201862, “PubChem BioAssay data set” (2004).
The source made the active and inactive calls.

Experiments:
[1] = biological target: T1, Microphthalmia-associated transcription factor (Homo sapiens, UniProt O75030); test: TRPM1 promoter luciferase signal decrease, dose response, MITF inhibitor project, cell-based, SK-MEL-5, cherry-picked, set 3 (AID 493073); type: functional
T1 sequence (O75030 whole entry): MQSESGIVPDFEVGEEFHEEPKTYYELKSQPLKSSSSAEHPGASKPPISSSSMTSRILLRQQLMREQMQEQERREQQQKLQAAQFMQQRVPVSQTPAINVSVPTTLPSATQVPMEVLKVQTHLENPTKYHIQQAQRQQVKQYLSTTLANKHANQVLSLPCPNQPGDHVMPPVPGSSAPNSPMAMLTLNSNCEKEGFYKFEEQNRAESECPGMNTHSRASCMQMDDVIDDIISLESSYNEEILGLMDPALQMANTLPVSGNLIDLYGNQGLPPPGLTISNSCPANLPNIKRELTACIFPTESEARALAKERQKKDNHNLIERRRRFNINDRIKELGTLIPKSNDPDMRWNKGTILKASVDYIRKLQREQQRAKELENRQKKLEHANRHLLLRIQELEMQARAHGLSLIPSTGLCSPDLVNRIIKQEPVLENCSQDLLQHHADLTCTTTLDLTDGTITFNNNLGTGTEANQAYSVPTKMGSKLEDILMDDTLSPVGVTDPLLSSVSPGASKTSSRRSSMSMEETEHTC

[2] = biological target: T2, Leucine aminopeptidase (Plasmodium falciparum 3D7, UniProt Q8IL11); test: P. falciparum M17LAP inhibitors, primary screen, biochemical, fluorogenic H-Leu-NHMec substrate, 1536-well (AID 1619); type: functional
T2 sequence (Q8IL11 whole entry): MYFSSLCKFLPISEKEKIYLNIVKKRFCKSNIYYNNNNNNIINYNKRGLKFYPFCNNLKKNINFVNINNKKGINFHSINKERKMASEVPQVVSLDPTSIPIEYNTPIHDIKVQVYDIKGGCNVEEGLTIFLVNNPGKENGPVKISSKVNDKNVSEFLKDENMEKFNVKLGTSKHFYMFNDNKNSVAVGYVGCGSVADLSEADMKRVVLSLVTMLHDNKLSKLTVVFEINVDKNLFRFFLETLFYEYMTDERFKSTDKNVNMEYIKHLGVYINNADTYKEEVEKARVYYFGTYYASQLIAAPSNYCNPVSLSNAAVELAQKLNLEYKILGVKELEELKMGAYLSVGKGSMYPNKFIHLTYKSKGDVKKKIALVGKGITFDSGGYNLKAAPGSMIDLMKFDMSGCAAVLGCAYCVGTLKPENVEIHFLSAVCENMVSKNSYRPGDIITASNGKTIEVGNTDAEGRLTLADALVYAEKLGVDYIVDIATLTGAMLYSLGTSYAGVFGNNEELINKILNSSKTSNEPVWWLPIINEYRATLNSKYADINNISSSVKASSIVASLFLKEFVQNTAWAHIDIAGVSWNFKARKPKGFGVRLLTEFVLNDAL

[3] = inhibitors of PGC1a acetylation in cells, dose response, cell-based, cherry-picked samples (AID 720514); type: functional;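 further: potency may reflect raised or lowered acetylation signal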
[4] = biological target: T3, Small ubiquitin-related modifier 1 (Homo sapiens, UniProt P63165); test: inhibitors of SUMO1 partner interactions, dose response, biochemical, FRET (AID 624383); type: functional; details: read-out: IC50_Mean
[5] = biological target: T3, Small ubiquitin-related modifier 1; test: inhibitors of SUMO1 peptide binding, dose response, biochemical, fluorescence polarization, uHTS hits (AID 624382); type: functional; details: read-out: IC50_Mean
[6] = biological target: T4, Zinc finger protein mex-5 (Caenorhabditis elegans, UniProt Q9XUB2); test: MEX-5/TCR-2 RNA interaction inhibitors, dose response, biochemical, C. elegans, fluorescence polarization (AID 1960)
T4 sequence (Q9XUB2 whole entry): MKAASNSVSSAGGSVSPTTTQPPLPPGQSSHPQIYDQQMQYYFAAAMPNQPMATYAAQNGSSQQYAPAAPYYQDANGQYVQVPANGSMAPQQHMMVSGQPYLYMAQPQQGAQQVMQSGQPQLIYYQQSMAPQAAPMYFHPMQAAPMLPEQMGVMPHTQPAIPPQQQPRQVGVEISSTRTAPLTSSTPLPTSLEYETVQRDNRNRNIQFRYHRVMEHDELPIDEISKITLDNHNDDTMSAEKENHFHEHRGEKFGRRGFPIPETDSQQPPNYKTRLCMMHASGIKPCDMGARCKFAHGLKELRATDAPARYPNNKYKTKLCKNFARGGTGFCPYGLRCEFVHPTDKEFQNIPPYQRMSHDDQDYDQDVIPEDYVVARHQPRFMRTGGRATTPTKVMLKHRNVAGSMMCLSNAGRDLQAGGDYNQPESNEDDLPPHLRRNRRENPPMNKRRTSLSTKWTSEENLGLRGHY

[7] = biological target: T5, Replicative DNA helicase DnaB (Mycobacterium tuberculosis, UniProt P9WMR3); test: DnaB intein splicing inhibitors, dose response, biochemical, cell-free fluorescence (AID 449749); type: functional
T5 sequence (P9WMR3 whole entry): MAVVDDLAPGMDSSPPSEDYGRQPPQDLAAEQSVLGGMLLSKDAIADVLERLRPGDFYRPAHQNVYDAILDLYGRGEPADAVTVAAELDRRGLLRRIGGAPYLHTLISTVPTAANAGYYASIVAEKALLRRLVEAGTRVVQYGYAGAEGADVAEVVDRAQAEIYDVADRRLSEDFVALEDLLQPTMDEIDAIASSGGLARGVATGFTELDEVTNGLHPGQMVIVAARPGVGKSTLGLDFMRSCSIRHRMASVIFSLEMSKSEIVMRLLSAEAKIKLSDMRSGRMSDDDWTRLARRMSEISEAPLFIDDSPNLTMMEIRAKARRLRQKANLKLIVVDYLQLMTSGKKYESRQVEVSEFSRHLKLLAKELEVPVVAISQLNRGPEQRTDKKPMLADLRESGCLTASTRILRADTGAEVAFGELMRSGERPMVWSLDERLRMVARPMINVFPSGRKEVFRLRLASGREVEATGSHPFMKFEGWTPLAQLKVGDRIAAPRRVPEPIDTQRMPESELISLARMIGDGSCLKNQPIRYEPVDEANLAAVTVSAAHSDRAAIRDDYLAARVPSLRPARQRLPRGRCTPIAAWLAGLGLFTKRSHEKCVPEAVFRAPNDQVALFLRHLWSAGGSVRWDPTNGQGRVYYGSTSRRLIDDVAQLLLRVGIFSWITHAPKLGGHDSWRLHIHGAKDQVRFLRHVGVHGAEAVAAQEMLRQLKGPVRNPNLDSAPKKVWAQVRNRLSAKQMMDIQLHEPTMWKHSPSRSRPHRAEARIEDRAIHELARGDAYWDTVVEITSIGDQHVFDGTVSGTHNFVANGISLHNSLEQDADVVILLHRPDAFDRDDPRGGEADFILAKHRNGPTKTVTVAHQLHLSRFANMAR

[8] = biological target: T6, RNA-binding protein pos-1 (Caenorhabditis elegans, UniProt G5EF15); test: inhibitors of POS-1/mex-3 RNA binding, dose response, biochemical, fluorescence polarization (AID 1964);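 further: purified POS-1 fused to maltose binding protein made in E. coli; potency of compounds blocking POS-1 binding to fluorescent RNA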
T6 sequence (G5EF15 whole entry): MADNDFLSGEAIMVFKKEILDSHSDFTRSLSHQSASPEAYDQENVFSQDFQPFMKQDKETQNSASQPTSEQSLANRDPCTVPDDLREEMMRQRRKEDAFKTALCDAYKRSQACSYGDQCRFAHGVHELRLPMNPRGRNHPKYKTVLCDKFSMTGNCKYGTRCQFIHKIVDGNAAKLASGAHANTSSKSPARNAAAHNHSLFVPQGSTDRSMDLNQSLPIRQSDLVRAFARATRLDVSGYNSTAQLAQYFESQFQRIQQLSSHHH

[9] = biological target: Large T antigen (Simian virus 40, UniProt P03070); type: functional, Betapolyomavirus macacae;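 further: Confirmatory-stage PubChem screen for compounds that inhibit SV40 T antigen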
[10] = biological target: T7, Protein RecA (Mycobacterium tuberculosis, UniProt P9WHJ3); test: Fluorescence Cell-Free Homogeneous Dose Retest to Identify Inhibitors of RecA-Intein Splicing Activity. [Related pubchem assays (depositor defined):AID2097, AID2223, AID489010, AID492950]; type: functional
T7 sequence (P9WHJ3 whole entry): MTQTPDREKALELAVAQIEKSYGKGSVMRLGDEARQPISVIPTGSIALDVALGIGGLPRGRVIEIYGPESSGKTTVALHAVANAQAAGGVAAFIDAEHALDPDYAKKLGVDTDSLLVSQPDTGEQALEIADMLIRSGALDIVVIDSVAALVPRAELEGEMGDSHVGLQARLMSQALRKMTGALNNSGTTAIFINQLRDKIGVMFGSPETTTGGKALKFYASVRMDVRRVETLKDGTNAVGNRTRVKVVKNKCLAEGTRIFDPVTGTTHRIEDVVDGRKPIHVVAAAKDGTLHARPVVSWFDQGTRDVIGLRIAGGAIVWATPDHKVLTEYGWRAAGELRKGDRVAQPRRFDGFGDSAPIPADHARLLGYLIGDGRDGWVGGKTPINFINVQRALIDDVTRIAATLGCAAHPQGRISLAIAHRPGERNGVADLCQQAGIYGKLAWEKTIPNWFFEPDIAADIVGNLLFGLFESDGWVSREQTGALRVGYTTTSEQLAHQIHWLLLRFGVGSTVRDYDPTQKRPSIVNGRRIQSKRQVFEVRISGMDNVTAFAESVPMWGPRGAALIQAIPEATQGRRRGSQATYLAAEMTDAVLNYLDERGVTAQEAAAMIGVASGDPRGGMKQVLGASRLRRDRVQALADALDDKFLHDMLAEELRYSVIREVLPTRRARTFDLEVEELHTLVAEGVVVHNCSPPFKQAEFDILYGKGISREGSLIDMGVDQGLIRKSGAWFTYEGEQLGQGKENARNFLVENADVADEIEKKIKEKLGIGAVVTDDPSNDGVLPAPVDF

[11] = LGR2 antagonists, dose response, cell-based, HEK293, CRE-luciferase reporter, cherry pick, set 2 (AID 743343); type: functional;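 further: transfected cells were stimulated with diluted bursicon conditioned medium after compound addition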
[12] = MC4R antagonists, dose response, counter-screen for LGR2 antagonist project, cell-based, plate reader, cherry pick (AID 743444); type: functional;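 further: transfected HEK 293 cells stimulated with alpha-MSH peptide; potency of inhibitors of the alpha-MSH evoked signal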
[13] = biological target: Cytochrome P450 3A4 (Homo sapiens, UniProt P08684);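 further: CYP3A4 tested as one member of a cytochrome P450 panel screen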
[14] = biological target: Cytochrome P450 2D6 (Homo sapiens, UniProt P10635);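 further: CYP2D6 member of a cytochrome P450 panel assay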
[15] = biological target: Cytochrome P450 2C9 (Homo sapiens, UniProt P11712)
[16] = biological target: Cytochrome P450 2C19 (Homo sapiens, UniProt P33261); test: Cytochrome panel assay with activity outcomes. Panel member name: p450-cyp2c19 Compounds with AC50 equal or less than 10 uM are considered active; type: functional; details: read-out: AC50
Chain of Cytochrome P450 2C19 (P33261 whole entry): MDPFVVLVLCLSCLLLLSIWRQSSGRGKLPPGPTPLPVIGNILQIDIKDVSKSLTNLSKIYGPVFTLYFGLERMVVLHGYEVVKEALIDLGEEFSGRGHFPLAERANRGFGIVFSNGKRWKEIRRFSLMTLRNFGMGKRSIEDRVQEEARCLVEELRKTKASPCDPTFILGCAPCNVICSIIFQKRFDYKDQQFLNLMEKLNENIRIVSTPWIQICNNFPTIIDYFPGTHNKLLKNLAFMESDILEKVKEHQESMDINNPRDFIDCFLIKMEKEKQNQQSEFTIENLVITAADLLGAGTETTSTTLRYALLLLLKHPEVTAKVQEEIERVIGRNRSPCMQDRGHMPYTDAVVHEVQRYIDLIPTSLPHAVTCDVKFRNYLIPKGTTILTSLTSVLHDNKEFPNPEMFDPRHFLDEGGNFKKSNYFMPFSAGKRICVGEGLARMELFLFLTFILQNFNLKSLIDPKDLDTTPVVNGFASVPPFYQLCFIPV

T3 sequence (P63165 whole entry): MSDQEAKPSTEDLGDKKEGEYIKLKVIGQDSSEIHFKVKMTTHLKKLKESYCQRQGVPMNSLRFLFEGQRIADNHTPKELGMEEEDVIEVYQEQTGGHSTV
Chain of Cytochrome P450 2C9 (P11712 whole entry): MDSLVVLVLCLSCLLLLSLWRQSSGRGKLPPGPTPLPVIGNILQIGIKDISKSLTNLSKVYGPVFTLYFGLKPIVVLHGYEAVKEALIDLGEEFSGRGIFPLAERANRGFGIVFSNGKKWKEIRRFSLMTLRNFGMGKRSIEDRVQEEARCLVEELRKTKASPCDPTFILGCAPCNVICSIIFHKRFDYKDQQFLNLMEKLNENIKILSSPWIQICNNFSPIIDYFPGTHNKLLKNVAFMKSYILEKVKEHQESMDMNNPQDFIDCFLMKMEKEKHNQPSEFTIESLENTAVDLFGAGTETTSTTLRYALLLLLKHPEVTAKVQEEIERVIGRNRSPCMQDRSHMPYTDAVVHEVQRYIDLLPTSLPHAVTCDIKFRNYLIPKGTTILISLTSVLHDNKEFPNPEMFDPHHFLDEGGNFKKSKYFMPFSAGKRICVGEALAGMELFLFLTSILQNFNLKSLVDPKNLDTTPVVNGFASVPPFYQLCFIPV
Chain of Large T antigen (P03070 whole entry): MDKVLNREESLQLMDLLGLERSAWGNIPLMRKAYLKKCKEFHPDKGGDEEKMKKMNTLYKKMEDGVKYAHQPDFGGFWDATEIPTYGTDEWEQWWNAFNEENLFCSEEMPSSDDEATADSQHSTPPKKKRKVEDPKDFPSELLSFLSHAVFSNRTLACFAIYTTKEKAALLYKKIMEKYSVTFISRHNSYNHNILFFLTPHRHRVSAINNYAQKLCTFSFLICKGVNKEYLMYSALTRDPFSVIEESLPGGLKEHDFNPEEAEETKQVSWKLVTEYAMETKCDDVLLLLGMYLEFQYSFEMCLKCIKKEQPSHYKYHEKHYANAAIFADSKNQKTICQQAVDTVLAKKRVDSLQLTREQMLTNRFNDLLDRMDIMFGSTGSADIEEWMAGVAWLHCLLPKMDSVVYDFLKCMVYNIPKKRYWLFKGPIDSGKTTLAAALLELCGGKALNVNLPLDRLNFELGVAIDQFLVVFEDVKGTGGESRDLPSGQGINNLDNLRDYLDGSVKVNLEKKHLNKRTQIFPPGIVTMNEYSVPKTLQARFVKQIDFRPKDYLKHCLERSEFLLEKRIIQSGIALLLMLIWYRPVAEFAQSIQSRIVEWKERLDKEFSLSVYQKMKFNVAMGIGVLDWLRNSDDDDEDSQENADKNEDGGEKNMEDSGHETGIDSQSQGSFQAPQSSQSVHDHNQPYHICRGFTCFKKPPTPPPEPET
Chain of Cytochrome P450 2D6 (P10635 whole entry): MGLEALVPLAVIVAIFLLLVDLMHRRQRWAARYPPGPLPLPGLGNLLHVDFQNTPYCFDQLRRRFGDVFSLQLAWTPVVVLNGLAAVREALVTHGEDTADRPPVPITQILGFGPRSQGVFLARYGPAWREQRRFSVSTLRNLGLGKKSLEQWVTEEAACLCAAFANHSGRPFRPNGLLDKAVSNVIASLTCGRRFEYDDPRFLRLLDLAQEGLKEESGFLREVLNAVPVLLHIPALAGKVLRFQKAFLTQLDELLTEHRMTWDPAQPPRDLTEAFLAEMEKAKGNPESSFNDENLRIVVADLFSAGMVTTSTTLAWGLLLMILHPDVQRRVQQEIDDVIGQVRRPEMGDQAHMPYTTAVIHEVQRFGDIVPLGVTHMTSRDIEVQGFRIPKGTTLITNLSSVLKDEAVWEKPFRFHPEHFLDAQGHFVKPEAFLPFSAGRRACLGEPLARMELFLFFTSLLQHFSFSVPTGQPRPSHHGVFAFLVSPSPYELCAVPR
Chain of Cytochrome P450 3A4 (P08684 whole entry): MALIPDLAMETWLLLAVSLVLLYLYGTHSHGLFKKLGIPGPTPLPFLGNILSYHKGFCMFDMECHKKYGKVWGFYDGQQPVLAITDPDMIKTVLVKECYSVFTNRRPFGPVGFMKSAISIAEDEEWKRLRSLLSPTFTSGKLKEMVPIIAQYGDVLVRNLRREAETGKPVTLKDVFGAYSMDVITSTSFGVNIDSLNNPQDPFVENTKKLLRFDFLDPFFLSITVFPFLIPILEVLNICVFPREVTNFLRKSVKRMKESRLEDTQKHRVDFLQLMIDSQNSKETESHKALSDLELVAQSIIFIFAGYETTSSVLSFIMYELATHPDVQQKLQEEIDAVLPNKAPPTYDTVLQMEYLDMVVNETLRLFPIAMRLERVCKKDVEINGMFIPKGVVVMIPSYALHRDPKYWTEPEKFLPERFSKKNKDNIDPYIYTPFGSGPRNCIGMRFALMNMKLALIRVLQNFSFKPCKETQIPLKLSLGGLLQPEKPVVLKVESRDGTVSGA

Question: For COc1cc(SC)ccc1C(=O)Nc1ccc(Br)cn1, which AC50 [1] is on record?
Answer: 7.36 µM (active)

Question: Which AC50 [1] does the source give for O=C(NCc1ccccc1)C(=O)Nc1cccc(C(=O)O)c1 here?
Answer: 4.85 µM (active)

Question: Which IC50 [2] does the source give for O=C(O)C1CCCCC1C(=O)Nc1cccc(Cl)c1Cl (stereo not given) here?
Answer: 13.5 µM (active)

Question: With COc1cccc2c(=O)n(CC(=O)N3CCCCCC3)ccc12 as the molecule, how does the IC50 [2] read?
Answer: 17.6 µM (active)

Question: Which IC50 [2] does the source give for O=C(Nc1c(C(=O)O)oc2ccc(Br)cc12)c1ccccc1 here?
Answer: 5.42 µM (active)

Question: Which IC50 [2] does the source give for O=C(O)C1CCCCC1C(=O)Nc1ccc2c(c1)OCCO2 (stereo not given) here?
Answer: 32.9 µM (active)

Question: With CCn1c(C)c(C)c2cc(C(=O)NCCN3CCOCC3)ccc21 as the molecule, how does the AC50 [3] read?
Answer: 25.5 µM (active)

Question: Which results are given for CC(CC(=O)OCC(=O)Nc1ccc2[nH]c(O)nc2c1)c1ccccc1 (stereo not given)?
Answer: IC50 [4]: 21 µM (inactive); IC50 [5]: > 66.6 µM (inactive)

Question: For COc1cc(C2C(C#N)=C(N)Oc3[nH]nc(-c4cccnc4)c32)cc(Br)c1O (stereo not given), which EC50 [6] is on record?
Answer: > 300 µM (not active)

Question: What about the AC50 [7] of the same molecule?
Answer: 5.65 µM (active)

Question: And the EC50 [8]?
Answer: > 300 µM (not active)

Question: What about the IC50 [9] of the same molecule?
Answer: 57 µM (active)

Question: What about the EC50 [10] of the same molecule?
Answer: 2.06 µM (active)

Question: With CCC(CO)Oc1cc(NC(=O)c2ccccc2F)c2ncn(C(C)C)c2c1 (stereo not given) as the molecule, how does the IC50 [4] read?
Answer: 12.2 µM (active)

Question: What about the IC50 [5] of the same molecule?
Answer: > 66.6 µM (inactive)

Question: For CC(=O)Nc1ccc(S(=O)(=O)N2CCn3cccc3C2C)cc1 (stereo not given), which AC50 [1] is on record?
Answer: 28.6 µM (active)

Question: With CCC(=O)Nc1cc2nn(-c3ccc(C)cc3)nc2cc1C as the molecule, how does the AC50 [1] read?
Answer: 4.15 µM (active)

Question: What does the source list for Cc1cc(C(=O)Nc2ccc(N3CCCCC3)cc2)no1?
Answer: AC50 [11]: 13.3 µM (active); AC50 [12]: 13.1 µM (active)

Question: Which AC50 [13] does the source give for COc1ccccc1NC(=O)CC1COc2ccccc2O1 (stereo not given) here?
Answer: 14.1 µM (inconclusive)

Question: And the IC50 [2]?
Answer: 5.29 µM (active)

Question: What about the AC50 [14] of the same molecule?
Answer: 12.6 µM (inconclusive)

Question: What about the AC50 [15] of the same molecule?
Answer: 5.62 µM (inconclusive)

Question: Which AC50 [3] does the source give for COc1cc(CN2C[C@@H]3N[C@H](C2)[C@H]3c2ccc(-c3cccc(OC)c3)cc2)cc(OC)c1 here?
Answer: 24.5 µM (active)

Question: With C[C@@H]1CN([C@@H](C)CO)S(=O)(=O)c2ccc(C#CC3CCCCC3)cc2O[C@H]1CN(C)Cc1cccnc1 as the molecule, how does the AC50 [3] read?
Answer: 15.1 µM (active)

Question: For O=C(N/N=C/c1ccncc1)c1cc2c(ccc3ccccc32)o1, which AC50 [16] is on record?
Answer: 8.91 µM (inconclusive)

Question: What about the IC50 [4] of the same molecule?
Answer: 100 µM (inactive)

Question: What about the IC50 [5] of the same molecule?
Answer: > 66.6 µM (inactive)

Question: And the AC50 [15]?
Answer: 0.794 µM (inconclusive)
